Experimental data taken from patent EP0400805A1, “Cephalosporin compounds and their use” (Ishimaru, Toshiyasu, priority 1989, dated 1990).

Legend:
Experiment in all cases: MIC by agar dilution method
Type in all cases: cell-based
Parameters in all cases: unit not given here
Klebsiella pneumoniae = system: Klebsiella pneumoniae
Description: (§1) The following Table 1 show minimum inhibitory concentrations (MIC) against Gram-positive and Gram-negative bacteria of representative compounds of the invention. MIC was measured by agar dilution method.

[1] = system: Pseudomonas aerugenosa GN
Description: as §1

Enterobacter cloacae = system: Enterobacter cloacae
Description: as §1

Proteus mirabilis = system: Proteus mirabilis
Description: as §1

Pseudomonas aerugenosa = system: Pseudomonas aerugenosa
Description: as §1

Serratia marcescens = system: Serratia marcescens
Description: as §1

Salmonella typhi = system: Salmonella typhi
Description: as §1

Staph. aureus Smith = system: Staph. aureus Smith
Description: as §1

Staph. epidermidis = system: Staph. epidermidis
Description: as §1

Escherichia coli NIHJ = system: Escherichia coli NIHJ
Description: as §1

Bacillus subtilis = system: Bacillus subtilis
Description: as §1

| Molecule | Minimum Inhibitor Concentration (MIC) (Klebsiella pneumoniae) | Minimum Inhibitor Concentration (MIC) [1] | Minimum Inhibitor Concentration (MIC) (Enterobacter cloacae) | Minimum Inhibitor Concentration (MIC) (Proteus mirabilis) | Minimum Inhibitor Concentration (MIC) (Pseudomonas aerugenosa) | Minimum Inhibitor Concentration (MIC) (Serratia marcescens) | Minimum Inhibitor Concentration (MIC) (Salmonella typhi) | Minimum Inhibitor Concentration (MIC) (Staph. aureus Smith) | Minimum Inhibitor Concentration (MIC) (Staph. epidermidis) | Minimum Inhibitor Concentration (MIC) (Escherichia coli NIHJ) | Minimum Inhibitor Concentration (MIC) (Bacillus subtilis) |
| --- | --- | --- | --- | --- | --- | --- | --- | --- | --- | --- | --- |
| Nc1nc(/C(=N/OCc2cc(Cl)c(O)c(O)c2Cl)C(=O)NC2C(=O)N3C(C(=O)[O-])=C(CSc4cnns4)CS[C@H]23)cs1.[Na+] (stereo partly shown) [Example 1, Sodium 7-[2-(2-aminothiazol-4-yl)-2(Z)-(2,5-dichloro-3,4-dihydroxybenzyloxyimino)acetamido]-3-(1,2,3-thiadiazol-5-yl)thiomethyl-3-cephem-4-carboxylate] | 0.05 | 0.39 | 0.20 | 0.05 | 0.39 | 0.10 | 0.10 | 0.10 | 0.20 | 0.05 | 0.78 |
| Nc1nc(/C(=N/OCc2ccc(O)c(O)c2Cl)C(=O)NC2C(=O)N3C(C(=O)[O-])=C(CSc4cnns4)CS[C@H]23)cs1.[Na+] (stereo partly shown) [Example 2, Sodium 7-[2-(2-aminothiazol-4-yl)-2(Z)-(2-chloro-3,4-dihydroxybenzyloxyimino)acetamido]-3-(1,2,3-thiadiazol-5-yl)thiomethyl-3-cephem-4-carboxylate] | 0.20 | 6.25 | 0.78 | 0.05 | 0.78 | 0.78 | 0.20 | 0.20 | 0.20 | 0.78 | 0.20 |
| C[n+]1ccc(SCC2=C(C(=O)[O-])N3C(=O)C(NC(=O)/C(=N\OCc4cc(Cl)c(O)c(O)c4Cl)c4csc(N)n4)C3SC2)cc1 (stereo not shown) [Example 3, 7-[2-(2-aminothiazol-4-yl)-2(Z)-(2,5-dichloro-3,4-di hydroxybenzyloxyimino)acetamido]-3-(N-methylpyridin-4-yl)thiomethyl-3-cephem-4-carboxylic acid] | 0.05 | 0.39 | 0.20 | 0.025 | 0.39 | 0.05 | 0.39 | 0.39 | 0.39 | 0.05 | 0.78 |
| Nc1nc(/C(=N/OCc2ccc(O)c(O)c2)C(=O)NC2C(=O)N3C(C(=O)[O-])=C(CSc4cnns4)CS[C@H]23)cs1.[Na+] (stereo partly shown) [Example 5, Sodium 7-[2-(2-aminothiazol-4-yl)-2(Z)-(3,4-dihydroxybenzyloxyimino)acetamido]-3-(1,2,3-thiadiazol-5-yl)thiomethyl-3-cephem-4-carboxylate] | 0.05 | 0.78 | 0.78 | 0.10 | 0.39 | 0.10 | 0.10 | 0.10 | 0.78 | 0.05 | 0.39 |
| Nc1nc(/C(=N/OCc2cc(O)c(O)c(Cl)c2)C(=O)NC2C(=O)N3C(C(=O)O)=C(CSc4cnns4)CSC23)cs1 (stereo not shown) [Example 7] | < 0.05 | 1.56 | 6.25 | < 0.05 | 0.78 | < 0.05 | < 0.05 | 0.01 | 0.78 | < 0.05 | 1.56 |
| Nc1nc(/C(=N/OCc2cc(F)c(O)c(O)c2F)C(=O)NC2C(=O)N3C(C(=O)[O-])=C(CSc4cnns4)CS[C@H]23)cs1.[Na+] (stereo partly shown) [Example 8, Sodium 7-[2-(2-aminothiazol-4-yl)-2(Z)-(2,5-difluoro-3,4-dihydroxybenzyloxyimino)acetamido]-3-(1,2,3-thiadiazol-5-yl)thiomethyl-3-cephem-4-carboxylate] | < 0.05 | 0.78 | 3.13 | < 0.05 | 0.39 | < 0.05 | < 0.05 | 0.10 | 0.20 | < 0.05 | 1.56 |
| Nc1nc(/C(=N/OCc2cc(O)c(O)c(F)c2)C(=O)NC2C(=O)N3C(C(=O)O)=C(CSc4cnns4)CSC23)cs1 (stereo not shown) [Example 9, Sodium 7-[2-(2-aminothiazol-4-yl)-2(Z)-(5-fluoro-3,4-dihydroxybenzyloxyimino)acetamido]-3-(l,2,3-thiadiazol-5-yl)thiomethyl-3-cephem-4-carboxylate] | < 0.05 | 1.56 | 6.25 | < 0.05 | 0.78 | < 0.05 | < 0.05 | 0.10 | 0.78 | < 0.05 | 1.56 |
| Sodium 7-[2-(2-aminothiazol-4-yl)-2(Z)-(3,4-dihydroxybenzyloxyimino)acetamido]-3-(5-methyl-2-tetrazol-2-yl)thiomethyl-3-cephem-4-carboxylate [Example 6] | 0.10 | 1.56 | 1.56 | 0.10 | 0.78 | 0.20 | 0.20 | 0.10 | 1.56 | 0.05 | 0.39 |
